Where two headings read alike, the source gives them in different places.
Target: T1, WT human CNGA3 plus WT CNGB3 heteromeric channels (Homo sapiens, UniProt Q16281+Q9NQW8)
T1 construct: expressed in transfected cells; host or cells: Xenopus laevis oocytes injected with cRNA transcribed from pGEMHE constructs
T1 sequence (Q16281 1-694): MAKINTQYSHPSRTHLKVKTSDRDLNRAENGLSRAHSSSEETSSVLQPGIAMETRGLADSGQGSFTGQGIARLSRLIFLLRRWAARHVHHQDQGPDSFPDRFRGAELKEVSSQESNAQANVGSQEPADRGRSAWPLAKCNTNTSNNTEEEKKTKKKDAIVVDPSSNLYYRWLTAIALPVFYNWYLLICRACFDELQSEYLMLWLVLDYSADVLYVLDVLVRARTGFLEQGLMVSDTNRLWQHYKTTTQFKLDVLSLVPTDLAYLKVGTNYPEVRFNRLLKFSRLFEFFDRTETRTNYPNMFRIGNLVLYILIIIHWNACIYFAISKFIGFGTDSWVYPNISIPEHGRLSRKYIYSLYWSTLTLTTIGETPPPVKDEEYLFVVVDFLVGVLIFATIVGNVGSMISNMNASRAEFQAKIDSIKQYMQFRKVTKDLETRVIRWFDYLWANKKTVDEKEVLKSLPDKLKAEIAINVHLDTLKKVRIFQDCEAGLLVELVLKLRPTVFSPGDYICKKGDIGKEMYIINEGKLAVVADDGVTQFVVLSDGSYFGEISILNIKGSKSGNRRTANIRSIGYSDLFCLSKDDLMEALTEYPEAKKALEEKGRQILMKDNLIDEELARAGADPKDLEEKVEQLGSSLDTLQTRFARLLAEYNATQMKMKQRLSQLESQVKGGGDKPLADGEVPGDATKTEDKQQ
T1 sequence (Q9NQW8 1-809): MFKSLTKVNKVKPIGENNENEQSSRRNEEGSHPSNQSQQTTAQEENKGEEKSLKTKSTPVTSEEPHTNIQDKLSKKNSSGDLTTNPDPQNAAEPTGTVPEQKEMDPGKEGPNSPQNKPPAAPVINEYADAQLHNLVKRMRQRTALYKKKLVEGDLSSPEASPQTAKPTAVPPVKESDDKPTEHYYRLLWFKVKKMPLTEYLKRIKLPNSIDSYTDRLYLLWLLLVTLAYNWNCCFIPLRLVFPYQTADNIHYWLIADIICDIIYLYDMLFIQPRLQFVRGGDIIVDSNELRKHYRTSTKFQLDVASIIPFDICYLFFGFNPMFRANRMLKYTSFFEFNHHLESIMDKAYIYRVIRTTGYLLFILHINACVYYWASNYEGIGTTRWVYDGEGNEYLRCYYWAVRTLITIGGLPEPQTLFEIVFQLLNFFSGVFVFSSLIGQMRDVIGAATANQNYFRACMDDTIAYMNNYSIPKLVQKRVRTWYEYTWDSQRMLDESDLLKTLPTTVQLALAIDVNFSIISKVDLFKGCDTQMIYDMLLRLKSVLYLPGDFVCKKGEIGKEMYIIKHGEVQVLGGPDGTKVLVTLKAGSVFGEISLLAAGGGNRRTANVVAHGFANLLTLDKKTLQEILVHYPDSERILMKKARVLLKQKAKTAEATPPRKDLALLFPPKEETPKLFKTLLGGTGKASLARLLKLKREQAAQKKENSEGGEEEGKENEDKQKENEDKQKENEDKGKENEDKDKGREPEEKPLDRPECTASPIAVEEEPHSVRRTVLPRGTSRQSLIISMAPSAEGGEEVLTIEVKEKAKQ
Assay: Inside-out patch-clamp recording of channels expressed in Xenopus oocytes (WT heteromeric)
Type: biochemical
Protocol: For heterologous expression in Xenopus laevis oocytes, identical amounts of cDNA were linearized using SphI or NheI, and capped cRNA was transcribed in vitro using the T-7 RNA polymerase mMESSAGE mMACHINE® kit (Ambion, Austin, TX). cRNA concentrations and relative amounts were determined by denaturing gel electrophoresis and KODAK 1D image analysis software (Rochester, NY), as well as by spectrophotometry. […] Oocytes were incubated in ND96 (96 mM NaCl, 2 mM KCl, 1.8 mM CaCl2, 1 mM MgCl2, and 5 mM HEPES, pH 7.6, supplemented with 10 μg/ml gentamycin).
Two to seven days after microinjection of cRNA, patch-clamp experiments were performed using the inside-out configuration with an Axopatch 200B amplifier (Axon Instruments, Foster City, CA). Recordings were made at 20–23 °C. Data were acquired using Pulse software (HEKA Elektronik, Lambrecht, Germany). Current traces were elicited by voltage steps from a holding potential of 0 mV to +80 mV, then to −80 mV and back to 0 mV. Initial pipette resistances were 0.4–0.8 megaohms. Intracellular and extracellular solutions contained 130 mM NaCl, 0.2 mM EDTA, and 3 mM HEPES (pH 7.2). Intracellular solutions were exchanged using an RSC-160 rapid solution changer (Molecular Kinetics, Indianapolis, IN). Currents in the absence of cyclic nucleotides were subtracted. For channel activation by CPT-cGMP or CPT-cAMP, dose–response data were fitted with the Hill equation, I/Imax=([cNMP]^h/(K1/2^h + [cNMP]^h)), where I is the current amplitude at +80 mV, Imax is the maximum current elicited by saturating concentration of ligand, [cNMP] is the ligand concentration, K1/2 is the apparent ligand affinity, and h is the Hill slope. We measured sensitivity to block by L-cis-diltiazem (RBI, Natick, MA) applied to the intracellular face of the patch in the presence of 0.1 μM CPT-cGMP. Data were fit with a modified Hill equation in the form I blocker/I=(K1/2^h/(K1/2^h + [blocker]^h)). Data were analyzed using Igor (Wavemetrics, Lake Oswego, OR), SigmaPlot, and SigmaStat (Systat Software Inc., San Jose, CA). All values are reported as the mean±standard error of the mean of n experiments unless otherwise indicated. Statistical significance was determined using a Student t test or Mann–Whitney rank sum test, and a p value of <0.05 was considered significant.

Structure (SMILES)	Hill slope h, CPT-cGMP activation (+80 mV, Hill fit, mean±SEM, n=13)	EC50 (+80 mV, Hill fit, mean±SEM, n=13, read-out: apparent CPT-cGMP affinity K1/2, CPT-cGMP (channel activation)) [µM]	maximum patch current density (Imax/area) (+80 mV, saturating CPT-cGMP (4 μM), mean±SEM, n=13) [pA/μm^2]	Hill slope h, CPT-cGMP, representative dose-response (representative patch, Figure 1B)	EC50 (representative patch, Figure 1B, read-out: K1/2,CPT-cGMP, representative dose-response) [µM]	potency relative to unmodified cGMP for channel activation (unmodified cGMP values from refs 19, 26)	relative agonist efficacy Imax, CPT-cAMP/Imax, CPT-cGMP (+80 mV, CPT-cAMP 100 μM vs CPT-cGMP 4 μM, mean±SEM, n=10)	Hill slope h, CPT-cAMP activation (Hill fit, mean±SEM, n=10)	EC50 (Hill fit, mean±SEM, n=10, read-out: apparent affinity K1/2, CPT-cAMP (channel activation)) [µM]	Hill slope h, CPT-cAMP, representative dose-response (representative patch, Figure 5A)	EC50 (representative patch, Figure 5A, read-out: K1/2,CPT-cAMP, representative dose-response) [µM]
Nc1nc2c(nc(Sc3ccc(Cl)cc3)n2[C@@H]2O[C@@H]3COP(=O)(O)O[C@H]3[C@H]2O)c(=O)[nH]1 [CPT-cGMP, 8-(4-chlorophenylthio) guanosine 3′,5′-cyclic monophosphate]	1.5±0.05	0.254 ± 0.0181	55.1±10.9	1.5	0.248	80–100 fold	–	–	–	–	–
Nc1ncnc2c1nc(Sc1ccc(Cl)cc1)n2[C@@H]1O[C@@H]2COP(=O)(O)O[C@H]2[C@H]1O [CPT-cAMP, CPT-adenosine 3′,5′-cyclic monophosphate]	–	–	–	–	–	–	0.25±0.03	1.7±0.1	28.1 ± 2.6	1.4	28.3
